Laboratory results reported in patent US8440640B2, “Methods and compositions for treating obesity and related disorders” (University of Medicine and Dentistry of New Jersey, priority 2008, dated 2013).
“Also recorded” adds a separate entry of the source. Where two headings read alike, the source gives them in different places.

Columns and labels:
AC5 [1] = target: AC5 (UniProt P30803); test: Inhibition of recombinant AC5 (baculovirus overexpression system); assay type: biochemical; design: IC50 AC5
Description: (§2) Several drugs with the adenine-like structure for AC5 inhibitors were screened using recombinant proteins of several AC subtypes with a baculovirus overexpression system.

AC6 = test: Forskolin-stimulated 32P-cAMP production in heart membranes from AC6 Tg mice; assay type: biochemical, mouse; details: forskolin 50 mM, n=4
Description: (§1) Hearts were dissected from the mice and membrane preparations were prepared as described previously. Protein concentration was measured by the method of Bradford using bovine serum albumin as a standard. AC activity was measured as described previously. AC activity was linear within the incubation time up to 30 min. In order to harvest hearts for tissue cAMP content measurements, mice were allowed to acclimate to the surroundings in the laboratory for an hour before sacrifice. Freshly isolated hearts were briefly immersed in liquid nitrogen. The tissue was homogenized in ice-cold 6% percholic acid, and cAMP was extracted as described before. The concentration of cAMP was determined with an RIA kit (PerkinElmer Life Sciences, Boston, Mass., USA).

AC5 [2] = test: Forskolin-stimulated 32P-cAMP production in heart membranes from AC5 Tg mice; assay type: biochemical, mouse; design: dose or concentration left out as unconfirmed; details: n=4
Description: To measure AC5 inhibition, in addition to membrane preparations from mouse heart, membrane preparations from mouse striatum were used because AC5 provides about 80% of total AC activity in the striatum, mimicking purified AC5. cAMP was measured with 50 mM forskolin (FSK) in the presence or absence of 10 mM of the indicated drugs).

AC2 [3] = target: AC2 (UniProt P26769); test: Inhibition of recombinant AC2 (baculovirus overexpression system); details: for IC50: read-out: IC50 AC2, recombinant AC proteins, Table 1; for inhibition of AC2: in the presence of Gs-α/GTPαS/forskolin
Description: as §2

[4] = tested on: AC activity in the heart of dogs; test: Forskolin-induced haemodynamic response in instrumented dog; assay type: in vivo; details: AraAde 15 mg/kg intravenously, forskolin 50 nmol/kg
Excerpt: An adult mongrel dog (16.5 kg, male) was surgically instrumented, for measurements of LV pressure (P), LV dP/dt, aortic pressure, ascending aortic blood flow (stroke volume) and mean aortic blood flow (cardiac output). (a) The response to intravenous infusion of Forskolin (50 nmol/kg) is shown on the phasic waveforms on the left. LV dP/dt, aortic flow (stroke volume) and mean aortic flow (cardiac output) are increased.

brain function = test: Bradykinesia and locomotor activity; details: as observed in AC5 KO
[5] = tested on: cultured cardiac myocytes; test: ISO-induced apoptosis and contraction in cultured cardiac myocytes; assay type: cell-based
AC3 = target: T1, AC3 (Rattus norvegicus, UniProt P21932); test: Inhibition of recombinant AC3 (baculovirus overexpression system); assay type: biochemical; details: for inhibition of AC3: in the presence of Gs-α/GTPαS/forskolin
T1 construct: made in house; host or cells: insect cells (baculovirus)
T1 sequence (P21932 1-1144): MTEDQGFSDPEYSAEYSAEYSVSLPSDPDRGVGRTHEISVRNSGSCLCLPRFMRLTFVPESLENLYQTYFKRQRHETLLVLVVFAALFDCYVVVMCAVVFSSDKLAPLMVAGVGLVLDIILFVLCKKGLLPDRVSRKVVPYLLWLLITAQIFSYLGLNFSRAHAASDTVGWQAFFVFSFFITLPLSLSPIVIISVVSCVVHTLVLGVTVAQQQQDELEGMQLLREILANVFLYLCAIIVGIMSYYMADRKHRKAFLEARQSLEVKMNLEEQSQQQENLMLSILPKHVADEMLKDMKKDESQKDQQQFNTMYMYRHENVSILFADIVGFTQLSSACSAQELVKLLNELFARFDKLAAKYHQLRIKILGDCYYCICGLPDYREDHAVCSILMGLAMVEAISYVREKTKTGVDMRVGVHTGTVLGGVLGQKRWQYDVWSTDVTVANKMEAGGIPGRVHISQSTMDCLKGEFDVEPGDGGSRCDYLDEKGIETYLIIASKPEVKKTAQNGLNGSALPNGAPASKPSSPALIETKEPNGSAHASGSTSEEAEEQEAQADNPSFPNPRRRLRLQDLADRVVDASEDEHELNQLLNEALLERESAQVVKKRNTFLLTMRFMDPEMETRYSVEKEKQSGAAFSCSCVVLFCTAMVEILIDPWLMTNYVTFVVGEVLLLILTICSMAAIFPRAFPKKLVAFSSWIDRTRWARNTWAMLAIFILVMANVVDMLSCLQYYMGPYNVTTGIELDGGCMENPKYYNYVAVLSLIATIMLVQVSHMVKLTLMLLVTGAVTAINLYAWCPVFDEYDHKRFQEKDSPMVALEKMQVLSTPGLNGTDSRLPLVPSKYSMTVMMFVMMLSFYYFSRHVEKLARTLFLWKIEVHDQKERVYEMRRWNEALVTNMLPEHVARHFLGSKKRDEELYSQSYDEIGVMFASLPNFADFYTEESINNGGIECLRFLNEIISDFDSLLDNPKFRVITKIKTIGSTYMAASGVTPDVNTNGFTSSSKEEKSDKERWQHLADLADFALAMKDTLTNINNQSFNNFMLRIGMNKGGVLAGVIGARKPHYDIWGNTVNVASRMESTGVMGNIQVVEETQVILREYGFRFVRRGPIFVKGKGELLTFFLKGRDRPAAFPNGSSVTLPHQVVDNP
Description: as §2

[6] = tested on: high-fat-diet-fed C57BL/6 mice; test: High-fat-diet-fed C57BL/6 mice treated with AraAde; assay type: in vivo, mouse; design: insulin resistance, HOMA IR: unit not given here
cardiac myocytes [7] = test: ISO-induced cAMP accumulation in cardiac myocytes; assay type: cell-based, mouse
Excerpt: Decreases in cAMP in AC5 KO were observed only at high ISO concentrations. […] (Toya et al., J Mol Cell Cardiol., 1998; 30(1):97-108)

myocardial infarction = test: Survival after myocardial infarction; details: in vivo
[8] = tested on: C57Bl/6 mice with chronic ISO infusion; test: Chronic ISO infusion model; assay type: in vivo, mouse
Excerpt: Mice were then subjected to echocardiography (LVEF) (A); and tissue was harvested for pathological examination of myocardial apoptosis (by TUNEL) (B); and fibrosis (by PASR) (C). n=4-9.*p<0.05 vs. all other groups. […] Thus, this AC5 inhibitor is protective against the development of ISO-induced cardiomyopathy.

[9] = Tolerability of subcutaneous mini-osmotic pump infusion; assay type: in vivo; details: infused subcutaneously, up to 3 months
AC2 [10] = details: previously noted; cited from earlier work
AC5 [11] = target: AC5 (UniProt P30803); test: Inhibition of recombinant AC5 (baculovirus overexpression system); assay type: biochemical; design: IC50 for AC5; other: in the presence of Gs-α/GTPαS/forskolin; details: in the presence of Gs-α/GTPαS/forskolin
Description: as §2

AC5 [12] = test: as above; assay type: biochemical; details: for Selectivity ratio for AC5, AC5/AC2: ratio of IC50 for AC5 to that for AC2; for Selectivity ratio for AC5, AC5/AC3: ratio of IC50 for AC5 to that for AC3
Description: as §2

[13] = occur in roughly half of administered patients; cited from earlier work
cardiac myocytes [14] = details: cited from earlier work
AC5 [15] = details: cited from earlier work
[16] = tested on: AC activity in heart membranes; test: ISO-stimulated AC activity in heart membranes of WT and AC5KO mice; assay type: biochemical, mouse; details: 10 μM
Description: as §1
cAMP production in membranes from the hearts of AC5KO and WT at 6 months of age was examined. The steady state AC activity was determined as the maximal capacity of cAMP production in the presence of ISO (100 μM ISO+100 μM GTP), GTPγS (100 μM) or forskolin (100 μM). […] Basal cardiac function was not decreased, but the response to ISO and muscarinic inhibition of ISO were attenuated.

[17] = recombinant AC proteins, Table 1, read-out: IC50 AC5
[18] = recombinant AC proteins, Table 1, read-out: IC50 AC3

SMILES: Nc1ncnc2c1ncn2[C@@H]1O[C@H](CO)[C@@H](O)[C@@H]1O [AraAde, 9-β-D-arabinofuranosyladenine]
- IC50 (AC5 [1]; [17]): 9.8 µM
- forskolin induced cAMP production, hearts from AC6 Tg (AC6): not
- forskolin induced cAMP production, hearts from AC5 Tg (AC5 [2]): dramatically decreased
- IC50 (AC2 [3]): 7200 µM
- forskolin-induced LV dP/dt max [4]: attenuated
- forskolin-induced cardiac output [4]: attenuated
- bradykinesia and impaired locomotor activity (brain function): does not induce
- ISO induced apoptosis in cultured cardiac myocytes [5]: prevented
- IC50 (AC3; [18]): 375 µM
- plasma insulin level ([6]; 15 mg/kg/day, high-fat diet): unchanged; also recorded: the elevation in insulin was minimal
- fasting blood glucose ([6]; 15 mg/kg/day, high-fat diet, vs vehicle): decreased
- glucose tolerance ([6]; 94 days high fat diet, 42 days AraAde): improved
- insulin resistance, HOMA IR ([6]; terminal blood after 6-7 hour fast, n=2): 6.38
- maximum level of suppression of ISO-induced cAMP accumulation (cardiac myocytes [7]): around 30%
- survival rate after myocardial infarction (myocardial infarction): increased
- ISO-induced cardiac fibrosis (PASR) ([8]; AraAde 100 μg/g/day): significantly inhibited
- ISO-induced myocardial apoptosis (TUNEL) ([8]; AraAde 100 μg/g/day): significantly inhibited
- chronic ISO-induced decreases in LVEF ([8]; AraAde 20 mg/kg/day for 1 week, echocardiography): inhibited
- exercise performance, maximum treadmill speed ([8]; chronic ISO 60 mg/kg/day for 1 week, AraAde 15 mg/kg/day, n=4-6): rescued exercise performance
- tolerability [9]: well tolerated

SMILES: Nc1ncnc2c1ncn2C1CCCO1 (stereo not drawn) [THFA, 9-(tetrahydro-2-furyl) adenine]
- selectivity ratio between AC6 and AC2 (AC2 [10]): 1.8
- inhibition of AC5 (AC5 [11]): potently inhibited
- inhibition of AC2 (AC2 [3]): only to a modest degree
- inhibition of AC3 (AC3): only to a modest degree
- selectivity ratio between AC5 and AC2 (AC5 [12]): 130

SMILES: C[C@H]1O[C@@H](n2cnc3c(N)ncnc32)C[C@@H]1O [2′5′-dd-Ado, 2′5′ dideoxyadenosine]
- IC50 (AC5 [1]; [17]): 1.6 µM
- IC50 (AC2 [3]): 2380 µM
- ISO induced apoptosis in cultured cardiac myocytes [5]: prevented
- contraction in cultured cardiac myocytes [5]: without impairing contraction
- IC50 (AC3): 253 µM
- Selectivity ratio for AC5, AC5/AC2 (AC5 [12]): 0.00067
- Selectivity ratio for AC5, AC5/AC3 (AC5 [12]): 0.0063
- maximum level of suppression of ISO-induced cAMP accumulation (cardiac myocytes [7]): around 30%

SMILES: Nc1ncnc2c1ncn2[C@@H]1O[C@H](CO)[C@@H](OP(=O)(O)O)[C@H]1O [3′-AMP]
- IC50 (AC5 [1]; read-out: IC50 for AC5): 14.6 µM

SMILES: Nc1ncnc2c1ncn2C1CCC(C(=O)NO)C1 (stereo not drawn) [PMC-6]
- IC50 (AC5 [1]; [17]): 0.32 µM
- IC50 (AC2 [3]): 65.3 µM
- IC50 (AC3; [18]): 11.1 µM
- Selectivity ratio for AC5, AC5/AC2 (AC5 [12]): 0.0049
- Selectivity ratio for AC5, AC5/AC3 (AC5 [12]): 0.029

SMILES: Nc1nc(F)nc2c1ncn2[C@@H]1O[C@H](CO)[C@@H](O)[C@@H]1O [fludarabine]
- adverse effects in patients [13]: severe adverse effects including bone marrow suppression

SMILES: Nc1ncc2c(n1)CC(c1ccco1)CC2=O (stereo not drawn) [NKY80, 2-amino-7-(2-furanyl)-7,8-dihydro-5(6H)-quinazoline]
- inhibition of cAMP accumulation in cultured cardiac myocytes (cardiac myocytes [14]): does not inhibit
- inhibition of purified AC5 protein in vitro (AC5 [15]): moderate inhibition

SMILES: Nc1ncnc2c1ncn2[C@H]1C[C@H](OP(=O)(O)O)[C@@H](CO)O1 [2′-d-3′-AMP]
- IC50 (AC5 [1]; read-out: IC50 for AC5): 0.82 µM

SMILES: Nc1ncnc2c1ncn2C1CCCC1 [CPA, 9-(cyclopentyl) adenine]
- inhibition of AC5 (AC5 [11]): potently inhibited
- inhibition of AC2 (AC2 [3]): only to a modest degree
- inhibition of AC3 (AC3): only to a modest degree

SMILES: C[N+](C)(C)CCOC(N)=O [Carbachol]
- inhibition of ISO-stimulated AC activity in AC5KO ([16]; AC5KO heart membranes): did not inhibit
- decrease of ISO-stimulated AC activity in WT ([16]; WT heart membranes): 21+/−3.4%
